Tests used:
[1] = Light sensitivity of C9 solutions; type: physicochemical; details: room light wavelengths <450 nm
Excerpt: The compounds of this invention can be prepared from readily available starting materials using general methods and procedures that will be apparent to one skilled in the art in view of the disclosure provided herein. It will be appreciated that where typical or preferred process conditions (i.e., reaction temperatures, times, mole ratios of reactants, solvents, pressures, etc.) are given, other process conditions can also be used unless otherwise stated. Optimum reaction conditions may vary with the particular reactants or solvent used, but such conditions can be determined by one skilled in the art by routine optimization procedures. […] If amber lighting is not available, then appropriate controls should be used to minimize solutions to light exposure e.g. aluminum foil wrapping, amber glassware
Test solutions on 1 g scale determined that 75-85% IPA/water gave good solubility (˜10:1 vol:wt), fine crystals that were filterable and solutions that could be heated and cooled to produce a predictable melt/crystallization. […] A hot filtration was required as a brown, material formed during crystallization when the solution was left exposed to room light for >1 h. This was only observed with the solution was exposed to light. Recovery was 92.7% of fine needles and UHPLC analysis of the supernatant was 91% a/a vs 99% for the solid indicating the supernatant was removing impurities. […]

[2] = test system: C57Bl/6 mice, MPTP-induced model of PD; test: Mouse MPTP model of Parkinson's Disease, open field locomotor assay; type: in vivo; details: 300 mg/kg PO QD Day -2 to Day 7, MPTP 60 mg/kg, Day 7
Excerpt: Animals. Species: Mouse. Strain: C57Bl/6. Source of Animals: Charles River. Age: 6 to 7 weeks. Sex: Male. Randomization: Animals were assigned randomly to treatment groups. Blinding of Study: Experimenters were blinded to the experimental treatments
Housing and Feeding. Acclimation/Conditioning: Not less than three days. Housing: Mice were housed on a 12 hr light/dark cycle (lights on 6:00 AM) No more than 4 mice per cage. Ventilated cage rack system. Diet: Standard rodent chow and water ad libitum.
Design Parameters. Route(s) of administration: PO. Dose Volume: PO: 5 mL/kg. Formulation(s): formulated by Melior according to directions from BioElectron. Vehicle-sesame oil (Spectrum Chemical, NF Catalog #SE130, CAS #8008-74-0). Dose Levels: 300 mg/kg. Dose Frequency: QD starting Day −2 (MPTP=Day 0) and until Day 7. Study duration: 11 days. Pretreatment time (up to 2 hrs): For Day 0 (MPTP Day): 30 min, Pretreatment time for Open Field Assay/Locomotor Activity (OFA/LMA) assay: 1 hr. Number of Groups: 3. Number of animals per group: 10. Total number of animals: 30 (in the study), 42 animals total (To ensure a proper power analysis of at least 10 animals/group, for all groups receiving MPTP, 4 additional animals were added to mitigate study impacts if there were MPTP-induced fatalities).
MPTP Treatment. MPTP was formulated in phosphate buffered saline and administered to mice three times at a dose of 20 mg/kg (1 mg/mL delivered at 20 mL/kg) at two-hour intervals (final dose of MPTP=60 mg/kg).
Locomotor activity. One day prior (baseline) and on Day 7 after MPTP administration (Day (−1) and Day 7), mice were monitored for various aspects of locomotor function using a fully automated open-field apparatus (Med-Associates, Inc). The apparatus consisted of a 10.75″×10.75″ arena enclosed in a sound-attenuated box, equipped with the fan and house light. […]
Data analysis. Data were averaged and are expressed as the average±SEM.
Data were analyzed by one-way ANOVA followed by a post-hoc tests. p-values of less than 0.05 were considered to be statistically significant from control.

- light sensitivity of solutions [1]: light sensitive
SMILES: CCCCCCCCCC1=C(C)C(=O)C(C)=C(C)C1=O [Compound C9, 2,3,5-trimethyl-6-nonylcyclohexa-2,5-diene-1,4-dione]
- open field locomotor assay (vertical time) ([2]; MPTP+Vehicle vs. MPTP+C9 p<0.001): restored vertical time
- open field locomotor assay (vertical counts) ([2]; MPTP+Vehicle vs. MPTP+C9 p<0.01): restored vertical counts

Source: patent US20230339835A1, “2,3,5-TRIMETHYL-6-NONYLCYCLOHEXA-2,5-DIENE-1,4-DIONE FOR SUPPRESSING AND TREATING ALPHA-SYNUCLEINOPATHIES, TAUOPATHIES, AND OTHER DISORDERS” (PTC THERAPEUTICS, INC., priority 2018, published 2023)
